Consider 29 compounds from patent US10072014B2 (Janssen Pharmaceutica NV, priority 2014, dated 2018).

One data set addresses T1, human mGlu2 receptor (Homo sapiens, UniProt Q14416).
T1 construct: expressed in transfected cells; host or cells: CHO cells
Nature of the data set: [35S]GTPγS binding assay, negative allosteric modulation of mGluR2. Type of data set: biochemical. The settings on record: for Emax: maximal % inhibition relative to the control glutamate response (EC80 glutamate), read-out: GTPγS-hmGluR2 anGT Emax; for IC50: membranes from CHO cells transfected with human mGlu2 receptor, glutamate 60 μM (~EC80), read-out: GTPγS-hmGluR2 anGT pIC50 (converted). The text has this: The compounds provided in the present invention are negative allosteric modulators of mGluR2. These compounds appear to inhibit glutamate responses by binding to an allosteric site other than the glutamate binding site. The response of mGluR2 to a concentration of glutamate is decreased when compounds of Formula (I) are present. Compounds of Formula (I) are expected to have their effect substantially at mGluR2 by virtue of their ability to reduce the function of the receptor. The effects of negative allosteric modulators tested at mGluR2 using the [^35S]GTPγS binding assay method described below and which is suitable for the identification of such compounds, and more particularly the compounds according to Formula (I), are shown in Table 7.
1) [^35S]GTPγS Binding Assay
The [^35S]GTPγS binding assay is a functional membrane-based assay used to study G-protein coupled receptor (GPCR) function whereby incorporation of a non-hydrolysable form of GTP, [^35S]GTPγS (guanosine 5′-triphosphate, labelled with […] ^35S), is measured. The G-protein a subunit catalyzes the exchange of guanosine 5′-diphosphate (GDP) by guanosine triphosphate (GTP) and on activation of the GPCR by an agonist, [^35S]GTPγS, becomes incorporated and cannot be cleaved to continue the exchange cycle (Harper (1998) Current Protocols in Pharmacology 2.6.1-10, John Wiley & Sons, Inc.). […] Here we describe the use of the [^35S]GTPγS binding assay using membranes from cells transfected with the human mGlu2 receptor and adapted from Schaffhauser et al. (Molecular Pharmacology, 2003, […]) for the detection of the negative allosteric modulation (NAM) properties of the compounds of this invention.
CHO-cells were cultured to pre-confluence and stimulated with 5 mM butyrate for 24 h. Cells were then collected by scraping in PBS and cell suspension was centrifuged (10 min at 4000 RPM in benchtop centrifuge). Supernatant was discarded and pellet gently resuspended in 50 mM Tris-HCl, pH 7.4 by mixing with an Ultra Turrax homogenizer. The suspension was centrifuged at 12,400 RPM (Sorvall F14S-6x250Y) for 10 minutes and the supernatant discarded. The pellet was homogenized in 5 mM Tris-HCl, pH 7.4 using an Ultra Turrax homogenizer and centrifuged again (13,000 RPM, 20 min, 4° C.). The final pellet was resuspended in 50 mM Tris-HCl, pH 7.4 and stored at −80° C. in appropriate aliquots before use. Protein concentration was determined by the Bradford method (Bio-Rad, USA) with bovine serum albumin as standard.
[^35S]GTPγS Binding Assay
Measurement of mGluR2 negative allosteric modulatory activity of test compounds was performed as follows. Test compounds and glutamate were diluted in assay buffer containing 10 mM HEPES acid, 10 mM HEPES salt, pH 7.4, 100 mM NaCl, 3 mM MgCl2 and 10 μM GDP. Human mGlu2 receptor-containing membranes were thawed on ice and diluted in assay buffer supplemented with 18 μg/ml saponin. Membranes were pre-incubated with compound together with a predefined (˜EC80) concentration of glutamate (60 μM) for 30 min at 30° C. After addition of [^35S]GTPγS (f.c. 0.1 nM), assay mixtures were shaken briefly and further incubated to allow [^35S]GTPγS incorporation on activation (30 minutes, 30° C.). Final assay mixtures contained 7 μg of membrane protein in 10 mM HEPES acid, 10 mM HEPES salt, pH 7.4, 100 mM NaCl, 3 mM MgCl2, 10 μM GDP and 10 μg/ml saponin. Total reaction volume was 200 μl. Reactions were terminated by rapid filtration through Unifilter-96 GF/B plates (Perkin Elmer, Massachusetts, USA) using a 96-well filtermate universal harvester. Filters were washed 6 times with ice-cold 10 mM NaH2PO4/10 mM Na2HPO4, pH 7.4. Filters were then air-dried, and 30 μl of liquid scintillation cocktail (Microscint-O) was added to each well. Membrane-bound radioactivity was counted in a Topcount.
The concentration-response curves of representative compounds of the present invention were generated using the Lexis software interface (developed at J&J). […]
(Binding of GTPγS marks nucleotide exchange on a G protein.)

T1 sequence (Q14416 19-872): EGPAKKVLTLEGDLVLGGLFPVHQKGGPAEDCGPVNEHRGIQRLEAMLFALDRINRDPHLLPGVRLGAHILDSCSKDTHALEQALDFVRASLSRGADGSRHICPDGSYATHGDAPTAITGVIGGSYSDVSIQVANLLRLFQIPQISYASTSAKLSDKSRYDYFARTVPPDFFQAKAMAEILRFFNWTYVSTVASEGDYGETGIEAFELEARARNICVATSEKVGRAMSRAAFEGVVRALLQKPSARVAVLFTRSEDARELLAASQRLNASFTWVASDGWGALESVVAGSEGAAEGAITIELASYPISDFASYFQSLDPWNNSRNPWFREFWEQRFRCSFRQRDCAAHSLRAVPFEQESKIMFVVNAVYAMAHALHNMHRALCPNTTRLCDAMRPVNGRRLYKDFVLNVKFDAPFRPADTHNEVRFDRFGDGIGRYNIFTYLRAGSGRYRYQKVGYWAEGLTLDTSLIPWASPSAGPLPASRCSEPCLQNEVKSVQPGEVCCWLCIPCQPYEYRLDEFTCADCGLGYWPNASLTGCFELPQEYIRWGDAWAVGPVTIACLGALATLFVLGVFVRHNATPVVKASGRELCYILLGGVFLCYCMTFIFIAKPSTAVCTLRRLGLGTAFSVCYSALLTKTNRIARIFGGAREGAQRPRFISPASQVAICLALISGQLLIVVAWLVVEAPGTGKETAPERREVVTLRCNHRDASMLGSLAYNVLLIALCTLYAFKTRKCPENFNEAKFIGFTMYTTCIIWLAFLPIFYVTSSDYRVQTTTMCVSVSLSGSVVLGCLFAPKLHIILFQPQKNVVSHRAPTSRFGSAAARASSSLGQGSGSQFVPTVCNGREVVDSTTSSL

By Emax is commonly meant the maximal effect, on the per cent scale that the assay sets. Consider `Cc1cc(-c2ncc(-c3cnn4c3C(=O)N(c3ccc(C(F)(F)F)cc3)C[C@@H]4C)[nH]2)ccn1` [Compound 41], for which, at human mGlu2 receptor, the Emax amounted to 106% and the IC50 was 166 nM.
By melting point is commonly meant the temperature of the solid-liquid transition. In the case of `C[C@H]1CN(c2ccc(C(F)(F)F)cc2)C(=O)c2c(-c3c[nH]c(-c4ccccc4)n3)cnn21` [Compound 5], the melting point is 119.88 °C. For the same compound, on human mGlu2 receptor, the Emax turned out to be 105% and the IC50 is 27.5 nM.
Regarding `C[C@H]1CN(c2ccc(C(F)(F)F)c(Cl)c2)C(=O)c2c(-c3c[nH]c(C(=O)N(C)C)n3)cnn21` [Compound 36], on human mGlu2 receptor, the Emax stood at 106% and the IC50 was 110 nM.
Regarding `Cc1nc(-c2cnn3c2C(=O)N(c2ccc(C(F)(F)F)c(C#N)c2)C[C@@H]3C)c[nH]1` [Compound 23], the melting point was 226.81 °C. For the same compound, at human mGlu2 receptor, the Emax was 104% and the IC50 is 64.6 nM.
In turn, `C[C@H]1CN(c2ccc(C(F)(F)F)c(Cl)c2)C(=O)c2c(-c3c[nH]c(-c4cnccn4)n3)cnn21` [Compound 43] showed a melting point of 227.75 °C. Also, at human mGlu2 receptor, the Emax is 106% and the IC50 was 4.9 nM.
Regarding `C[C@H]1CN(c2ccc(C(F)(F)F)cc2)C(=O)c2c(-c3c[nH]c(C4CC4)n3)cnn21` [Compound 2], on human mGlu2 receptor, the Emax amounted to 103% and the IC50 is 20 nM.
Compound `CNc1ncc(-c2cnn3c2C(=O)N(c2ccc(C(F)(F)F)cc2)C[C@@H]3C)[nH]1` [Compound 15] yielded a melting point of 205 °C. On human mGlu2 receptor, the Emax came to 102% and the IC50 is 170 nM.
In turn, `Cc1[nH]c(-c2cccnc2)nc1-c1cnn2c1C(=O)N(c1ccc(C(F)(F)F)cc1)C[C@@H]2C` [Compound 14] showed a melting point of 244.74 °C. At human mGlu2 receptor, the Emax was 103% and the IC50 was 110 nM.
`Cc1[nH]c(-c2ccccn2)nc1-c1cnn2c1C(=O)N(c1ccc(C(F)(F)F)cc1)C[C@@H]2C` [Compound 17]: the melting point stood at 198.73 °C. For the same compound, at human mGlu2 receptor, the Emax came to 106% and the IC50 was 145 nM.
Taken in the same sequence, the figures for `C[C@H]1CN(c2ccc(C(F)(F)F)c(Cl)c2)C(=O)c2c(-c3c[nH]c(C4CCC4)n3)cnn21` [Compound 42] were 173.18 °C, 109% and 1.86 nM.
Consider `C[C@H]1CN(c2ccc(C(F)(F)F)cc2)C(=O)c2c(-c3c[nH]c(-c4cnccn4)n3)cnn21` [Compound 44], for which, at human mGlu2 receptor, the Emax was determined as 103% and the IC50 was 38.9 nM.
Taken in the same sequence, the figures for `C[C@H]1CN(c2ccc(Cl)c(Cl)c2)C(=O)c2c(-c3c[nH]c(-c4ccc(N)nc4)n3)cnn21` [Compound 19] were 108% and 50.1 nM.
Compound `CC(C)c1nc(-c2cnn3c2C(=O)N(c2ccc(C(F)(F)F)cc2)C[C@@H]3C)c[nH]1` [Compound 6] came in with a melting point of 156.03 °C. For the same compound, at human mGlu2 receptor, the Emax was found to be 104% and the IC50 was 30.9 nM.
With `C[C@H]1CN(c2ccc(C(F)(F)F)cc2)C(=O)c2c(-c3nc(-c4ccc(N)nc4)[nH]c3Cl)cnn21` [Compound 3], at human mGlu2 receptor, the Emax is 108% and the IC50 is 25.1 nM.
For `C[C@H]1CN(c2ccc(C(F)(F)F)c(Cl)c2)C(=O)c2c(-c3c[nH]c(C#N)n3)cnn21` [Compound 29], at human mGlu2 receptor, the Emax was 111% and the IC50 was 3.89 nM.
The compound `Cc1[nH]c(-c2ccccn2)nc1-c1cnn2c1C(=O)N(c1ccc(C(F)(F)F)c(Cl)c1)C[C@@H]2C` [Compound 38] yielded a melting point of 232.11 °C. On human mGlu2 receptor, the Emax came to 105% and the IC50 is 21.4 nM.
Consider `C[C@H]1CN(c2ccc(C(F)(F)F)cc2)C(=O)c2c(-c3nc(-c4ccc(N)nc4)[nH]c3Br)cnn21` [Compound 9], for which, at human mGlu2 receptor, the Emax came out at 108% and the IC50 was 34.7 nM.
`Cc1cc(N2C[C@H](C)n3ncc(-c4c[nH]c(-c5ccc(N)nc5)n4)c3C2=O)ccc1C(F)(F)F` [Compound 20] registered a melting point of 275.27 °C. Moreover, on human mGlu2 receptor, the Emax was determined as 107% and the IC50 is 53.7 nM.
In turn, `Cc1ncc(-c2cnn3c2C(=O)N(c2ccc(C(F)(F)F)c(CF)c2)C[C@@H]3C)[nH]1` [Compound 24] displayed a melting point of 174.28 °C. Moreover, on human mGlu2 receptor, the Emax turned out to be 106% and the IC50 was 15.8 nM.
Consider `COCc1ncc(-c2cnn3c2C(=O)N(c2ccc(C(F)(F)F)cc2)C[C@@H]3C)[nH]1` [Compound 13], for which, on human mGlu2 receptor, the Emax was 104% and the IC50 was 83.2 nM.
`C[C@H]1CN(c2ccc(C(F)(F)F)cc2)C(=O)c2c(-c3nc[nH]c3Br)cnn21` [Compound 1]: the melting point amounted to 228.68 °C. For the same compound, at human mGlu2 receptor, the Emax came out at 99.3% and the IC50 is 11.5 nM.
As for `C[C@H]1CN(c2ccc(C(F)(F)F)cc2)C(=O)c2c(-c3cnc(C4CCC4)[nH]3)cnn21` [Compound 40], at human mGlu2 receptor, the Emax was determined as 107% and the IC50 is 6.92 nM.
For the compound `C[C@H]1CN(c2ccc(C(F)(F)F)cc2)C(=O)c2c(-c3cnc[nH]3)cnn21` [Compound 12], the melting point was 176.92 °C. At human mGlu2 receptor, the Emax was found to be 101% and the IC50 is 70.8 nM.
As to `C[C@H]1CN(c2ccc(C(F)(F)F)cc2)C(=O)c2c(-c3cnc(C(F)(F)F)[nH]3)cnn21` [Compound 8], on human mGlu2 receptor, the Emax was 108% and the IC50 is 33.1 nM.
`CNC(=O)c1nc(-c2cnn3c2C(=O)N(c2ccc(C(F)(F)F)c(Cl)c2)C[C@@H]3C)c[nH]1` [Compound 35]: at human mGlu2 receptor, the Emax is 111% and the IC50 is 38 nM.
On to `C[C@H]1CN(c2ccc(C(F)(F)F)c(Cl)c2)C(=O)c2c(-c3c[nH]c(-c4cccnc4)n3)cnn21` [Compound 37], for which the melting point was 188.06 °C. Also, at human mGlu2 receptor, the maximal effect (Emax) was found to be 109% and the IC50 was 12.9 nM.
Take `C[C@H]1CN(c2ccc(C(F)(F)F)c(Cl)c2)C(=O)c2c(-c3nc(-c4ccc(N)nc4)[nH]c3C#N)cnn21` [Compound 45]: on human mGlu2 receptor, the Emax worked out at 106% and the IC50 is 34.7 nM.
In the case of `C[C@H]1CN(c2ccc(C(F)(F)F)c(Cl)c2)C(=O)c2c(-c3c[nH]c(-c4ccccn4)n3)cnn21` [Compound 39], at human mGlu2 receptor, the Emax amounted to 104% and the IC50 was 8.32 nM.
As to `C[C@H]1CN(c2ccc(C(F)(F)F)cc2)C(=O)c2c(-c3cnc(C#N)[nH]3)cnn21` [Compound 10], the melting point is 219.19 °C. Besides, on human mGlu2 receptor, the Emax turned out to be 107% and the IC50 is 36.3 nM.
